The target of one experiment is T1, human B1R (Homo sapiens, UniProt P46663).
T1 construct: expressed in transfected cells; host or cells: CHO K1 cells
T1 sequence (P46663 1-353): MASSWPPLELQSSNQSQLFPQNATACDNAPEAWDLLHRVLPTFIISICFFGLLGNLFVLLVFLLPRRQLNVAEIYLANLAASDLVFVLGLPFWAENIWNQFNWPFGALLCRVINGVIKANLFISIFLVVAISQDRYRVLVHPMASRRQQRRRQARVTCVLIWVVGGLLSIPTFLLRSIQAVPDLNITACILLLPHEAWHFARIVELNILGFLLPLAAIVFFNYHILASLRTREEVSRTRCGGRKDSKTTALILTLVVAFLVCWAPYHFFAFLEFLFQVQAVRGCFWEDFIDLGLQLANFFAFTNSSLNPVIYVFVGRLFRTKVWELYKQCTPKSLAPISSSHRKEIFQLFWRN
The experiment in a line: Functional investigation on the bradykinin receptor 1 (B1R), FLIPR Ca2+ assay, hB1R cells. The format is cell-based. Conditions: % inhibition human B1R at 10 μM; CHO K1 cells transfected with human B1R; agonist Lys-Des-Arg9 bradykinin at EC80; read-out: % Inh. (hum. B1R) 10 μM. The procedure: (§1) The agonistic or antagonistic action of substances can be quantified on the bradykinin receptor 1 (B1R) of the human and rat species with ectopically expressing cell lines (CHO K1 cells) and with the aid of a Ca^2+-sensitive dye (Fluo-4) using a fluorescent imaging plate reader (FLIPR). The indication in % activation is based on the Ca^2+ signal after addition of Lys-Des-Arg^9 bradykinin (0.5 nM) or Des-Arg^9 bradykinin (100 nM). Antagonists lead to a suppression of the Ca^2+ influx following administration of the agonist. The % inhibition in comparison with the maximum achievable inhibition is indicated.
(§2) The agonistic or antagonistic action of substances can be determined on the bradykinin 1 receptor (B1R) of the human and rat species with the following assay. According to this assay, the Ca^2+ inflow through the channel is quantified with the aid of a Ca^2+-sensitive dye (Fluo-4 type, Molecular Probes Europe BV, Leiden, The Netherlands) in a fluorescent imaging plate reader (FLIPR, Molecular Devices, Sunnyvale, USA).
(§3) Chinese hamster ovary cells (CHO K1 cells) which are stably transfected with the human B1R gene (hB1R cells) or the B1R gene of the rat (rB1R cells) are used. For functional investigations, these cells are plated-out onto black 96-well plates with a clear base (BD Biosciences, Heidelberg, Germany or Greiner, Frickenhausen, Germany) in a density of 20,000-35,000 cells/well. Overnight, the cells are incubated at 37° C. and 5% CO2 in culture medium (hB1R cells: Nutrient Mixture Ham's F12, Gibco Invitrogen GmbH, Karlsruhe, Germany or DMEM, Sigma-Aldrich, Taufkirchen, Germany; rB1R cells: D-MEM/F12, Gibco Invitrogen, Karlsruhe, Germany) with 10 vol. % FBS (foetal bovine serum, Gibco Invitrogen GmbH, Karlsruhe, Germany or PAN Biotech GmbH, Aidenbach, Germany). On the following day the cells are loaded with 2.13 μM Fluo-4 (Molecular Probes Europe BV, Leiden, The Netherlands) in HBSS buffer (Hank's buffered saline solution, Gibco Invitrogen GmbH, Karlsruhe, Germany) with 2.5 mM probenecid (Sigma-Aldrich, Taufkirchen, Germany) and 10 mM HEPES (Sigma-Aldrich, Taufkirchen, Germany) for 60 min at 37° C. The plates are the washed twice with HBSS buffer, and HBSS buffer which additionally contains 0.1% BSA (bovine serum albumin; Sigma-Aldrich, Taufkirchen, Germany), 5.6 mM glucose and 0.05% gelatine (Merck KGaA, Darmstadt, Germany) is added. After a further incubation of 20 minutes at room temperature, the plates are inserted into the FLIPR for Ca^2+ measurement. Alternatively they are washed with buffer A (15 mM HEPES, 80 mM NaCl, 5 mM KCl, 1.2 mM CaCl2, 0.7 mM MgSO4, 2 g/l glucose, 2.5 mM probenecid) and loaded with buffer A with added 2.5 μM Fluo-4 and 0.025% Pluronic F127 (Sigma-Aldrich, Taufkirchen, Germany). The cells are then washed twice with buffer A and incubated for 30 minutes with buffer A, which additionally contains 0.05% BSA and 0.05% gelatine, at room temperature and then used for Ca^2+ measurement in the FLIPR.
(§4) The Ca^2+-dependent fluorescence is measured here before and after addition of substances (λex=488 nm, λem=540 nm). The quantification is performed by measuring the highest fluorescence intensity (FC, fluorescence counts) over time.
(§5) The FLIPR protocol comprises two additions of substance. Test substances (10 μM) are first pipetted onto the cells and the Ca^2+ inflow is compared with the control (hB1R: Lys-Des-Arg^9 bradykinin>=50 nM; rB1R: Des-Arg^9 bradykinin 10 μM). The value in % activation based on the Ca^2+ signal after addition of Lys-Des-Arg^9 bradykinin (>=50 nM) or Des-Arg^9 bradykinin (10 μM) is obtained therefrom. After incubation for 10-20 minutes, Lys-Des-Arg^9 bradykinin (hB1R) or Des-Arg^9 bradykinin (rB1R) is applied in the EC80 concentration and the inflow of Ca^2+ is likewise determined. Antagonists lead to a suppression of the Ca^2+ inflow. The % inhibition in comparison with the maximum achievable inhibition is calculated. […]

In the next experiment the target is T2, rat B1R (Rattus norvegicus, UniProt P97583).
T2 construct: expressed in transfected cells; host or cells: CHO K1 cells
T2 sequence (P97583 1-337): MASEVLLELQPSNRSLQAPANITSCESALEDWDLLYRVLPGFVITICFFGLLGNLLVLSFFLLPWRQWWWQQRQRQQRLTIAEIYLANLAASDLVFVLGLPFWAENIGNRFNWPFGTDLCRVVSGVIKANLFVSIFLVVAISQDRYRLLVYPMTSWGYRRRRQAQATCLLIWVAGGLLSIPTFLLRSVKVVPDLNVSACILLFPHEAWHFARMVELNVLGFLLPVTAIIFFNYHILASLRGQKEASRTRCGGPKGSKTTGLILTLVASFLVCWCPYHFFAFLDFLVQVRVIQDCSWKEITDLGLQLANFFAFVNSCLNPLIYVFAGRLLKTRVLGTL
The experiment in a line: Functional investigation on the bradykinin receptor 1 (B1R), FLIPR Ca2+ assay, rB1R cells. It counts as cell-based. Conditions: % inhibition rat B1R at 10 μM; CHO K1 cells transfected with rat B1R; agonist Des-Arg9 bradykinin at EC80; read-out: % Inh. (rat B1R) 10 μM. The procedure: as §1, §2, §3, §4, §5

The structures appear in SMILES notation.

Consider `COc1cc(C)c(S(=O)(=O)N2CCCC[C@H]2COCC(=O)N2CCC3(CC2)CCC(c2cccc(F)c2)(N(C)C)CC3)c(C)c1` [Compound 11, 1-(9-(Dimethylamino)-9-(3-fluorophenyl)-3-azaspiro[5.5]undecan-3-yl)-2-(((S)-1-(4-methoxy-2,6-dimethylphenylsulfonyl)piperidin-2-yl)methoxy)ethanone], for which the results for the inhibition at 10 µM on human B1R and on rat B1R were 100% and 104%, respectively.
For `O=C(CC1CCCCN1S(=O)(=O)c1cccc(C(F)(F)F)c1)N1CCC2(CC1)CCC(c1cccc(F)c1)(N1CCCC1)CC2` (stereo not drawn) [CC-01, 1-[3-(3-Fluorophenyl)-3-pyrrolidin-1-yl-9-azaspiro[5.5]undecan-9-yl]-2-[1-[[3-(trifluoromethyl)phenyl]sulfonyl]-piperidin-2-yl]-ethanone], in that order: 73% and 75%.
As to `CN(C)C1(c2ccccc2)CCC2(CCN(C(=O)C[C@@H](NS(=O)(=O)c3ccc4ccccc4c3)c3ccccc3)CC2)CC1` [Compound 5, N-((1R)-3-(9-(Dimethylamino)-9-phenyl-3-azaspiro[5.5]undecan-3-yl)-3-oxo-1-phenylpropyl)naphthalene-2-sulfonamide], the inhibition at 10 µM on human B1R stood at 77%; at rat B1R it was 99%.

Values taken from US8278319B2, “Substituted spiroamine compounds” (Gruenenthal GmbH, priority 2008, dated 2012).
